From patent US9828365B2, “Fused tetracyclic heterocyclic compounds and methods of use thereof for the treatment of viral diseases” (MERCK SHARP & DOHME CORP., priority 2013, dated 2017)
Where two headings read alike, the source gives them in different places.

How the values were obtained:
HCV replicon genotype 1A = experiment: Cell-based HCV replicon assay, 1A; conditions: replicon cells, 3 days, replicon RNA by real-time PCR
Method: (§1) To measure cell-based anti-HCV activity of selected compounds of the present invention two complimentary assays were employed. In the first assay, replicon cells were seeded at 2000 cells/well in 384-well flat bottom tissue culture treated clear bottom plate (Corning 3707) in the presence of the test compound. Various concentrations of test compound, typically in 10 serial dilutions, were added to the assay mixture, with the starting concentration ranging from 333.3 nM to 1.667 nM. The final concentration of DMSO was 0.5%. Fetal bovine serum was 5%, in the assay media. Cells were harvested on day 3 by removing media and washing the cells with a suitable wash buffer. The cells were lysed with the addition of 1× Qiagen lysis buffer (Cat #1062731). The replicon RNA level was measured using real time PCR (TaqMan® EZ RT-PCR, Applied Biosystems 403028) with the following primers and probes: […]
(§2) Cyclophilin RNA was used as endogenous control and was amplified in the same reaction as NS5B (multiplex PCR). The real-time RT-PCR reactions were run on ABI PRISM 7900HT Sequence Detection System using the following program: 50° C. for 2 minutes, 60° C. for 30 minutes, 95° C. for 5 minutes, 40 cycles of 94° C. for 20 sec, 55° C. for 1 minute.
(§3) The amount of HCV replicon RNA per cell is quantified using a linear regression curve for a known nanogram (ng) amount of HCV replicon total RNA. This is established by plotting the Cycle Threshold values (Ct) from the Neo probe and primer set versus the log (ng) for each HCV replicon total RNA standard. The amount of HCV RNA for each replicon sample is calculated by taking the sample's Ct value, minus the line intercept, divided by the slope of the line. Similarly, the amount of Cyclophilin mRNA per cell is also quantified using a linear regression curve for a known nanogram (ng) amount of HCV replicon total RNA. Again, this is established by plotting the Cycle Threshold values (Ct) from the Cyclophilin probe and primer set versus the log (ng) for each HCV replicon total RNA standard.
(§4) In the alternate assay, 1000 cells were seeded per well in a 384-well collagen coated black plate from Greiner bio-one (Cat #781946) in 5% FBS. Inhibitors of this invention were added at 24 hours post-seeding, and the plates were incubated for 3 days. Cells were subsequently lysed with Qiagen lysis buffer (Cat #1062731) to extract the RNA. HCV replicon RNA level was measured by real-time PCR using the RNA-to-CT kit from Applied Biosystem (Cat #4392656) and genotype-specific primers and probes. The amplicon was located within NS5B. The sequence of the PCR primers were as follows: 5B.2F, ATGGACAGGCGCCCTGA (SEQ. ID NO. 7); 5B.2R, […] (SEQ. ID NO. 8); the probe sequence was FAM-labeled CACGCCATGCGCTGCGG (SEQ. ID NO. 9). To detect genotype 1A the primer 1A F, TGCGGAACCGGTGAGTACA (SEQ ID NO:10) and 1A R, […] (SEQ ID NO: 11) were used; the probe sequence was FAM-[…] (SEQ ID NO:12).
(§5) The real-time RT-PCR reactions were run on ABI PRISM 7900HT or Viia7 Sequence Detection System using the following program: 48° C. for 30 minutes, 95° C. for 10 minutes, 40 cycles of 95° C. for 15 sec, 60° C. for 1 minute. The 50% effective concentration (EC50) was the drug concentration necessary to achieve an increase in the cycle threshold (CT) of 1 over the projected baseline CT. The EC90 was the drug concentration necessary to achieve an increase in CT of 3.2 over the projected baseline CT.

HCV replicon 1A Y93H = experiment: Cell-based HCV replicon assay, 1A Y93H
Method: as §1, §2, §3, §4, §5

HCV replicon 1B = experiment: Cell-based HCV replicon assay, 1B; conditions: replicon cells, 3 days, replicon RNA by real-time PCR
Method: as §1, §2, §3, §4, §5

HCV replicon 2B = experiment: Cell-based HCV replicon assay, 2B; conditions: replicon cells, 3 days, replicon RNA by real-time PCR
Method: as §1, §2, §3, §4, §5

HCV replicon 3A = experiment: Cell-based HCV replicon assay, 3A; conditions: replicon cells, 3 days, replicon RNA by real-time PCR
Method: as §1, §2, §3, §4, §5

[1] = read-out: 1A Y93H IC50, replicon cells, 3 days, replicon RNA by real-time PCR
[2] = Hepatitis C virus, 72 h, read-out: 1A Y93H IC50 (nM), replicon cells, 3 days, replicon RNA by real-time PCR

SMILES	IC50 (HCV replicon genotype 1A)	IC50 (HCV replicon 1A Y93H; [1])	IC50 (HCV replicon 1A Y93H; [2])	other results
COC(=O)N[C@H](C(=O)N1CCC[C@H]1c1ncc(-c2ccc3c(c2)OC(c2ccccc2)C2=C3COc3cc(-c4cnc([C@@H]5CCCN5C(=O)[C@@H](NC(=O)OC)C(C)C)[nH]4)ccc32)[nH]1)C(C)C (single isomer, unassigned) [Compound 8]	0.0337 nM	20.4 nM		IC50 (HCV replicon 1B): 0.021 nM; IC50 (HCV replicon 2B): 6.65 nM; IC50 (HCV replicon 3A): 0.969 nM
COC(=O)N[C@H](C(=O)N1CCC[C@H]1c1ncc(-c2ccc3c(c2)OC(c2ccccc2)C2=C3COc3cc(-c4cnc([C@@H]5CCCN5C(=O)[C@@H](NC(=O)OC)C(C)C)[nH]4)ccc32)[nH]1)C(C)C (single isomer, unassigned) [Compound 9]	0.0099 nM	3.94 nM		IC50 (HCV replicon 1B): 0.0073 nM; IC50 (HCV replicon 2B): 1.9 nM; IC50 (HCV replicon 3A): 0.172 nM
COC(=O)N[C@H](C(=O)N1CCC[C@H]1c1ncc(-c2ccc3c(c2)OC(c2cccc(OC)c2)C2=C3COc3cc(-c4cnc([C@@H]5CCCN5C(=O)[C@@H](NC(=O)OC)C(C)C)[nH]4)ccc32)[nH]1)C(C)C (single isomer, unassigned) [Compound 10]	0.0035 nM		2.94 nM	IC50 (HCV replicon 2B; Hepatitis C virus, 72 h): 2.72 nM; IC50 (HCV replicon 3A): 0.233 nM
COC(=O)N[C@H](C(=O)N1CCC[C@H]1c1ncc(-c2ccc3c(c2)OC(c2cccc(OC)c2)C2=C3COc3cc(-c4cnc([C@@H]5CCCN5C(=O)[C@@H](NC(=O)OC)C(C)C)[nH]4)ccc32)[nH]1)C(C)C (single isomer, unassigned) [Compound 11]	0.01 nM			IC50 (HCV replicon 1B; Hepatitis C virus, 72 h): 0.006 nM
COC(=O)N[C@H](C(=O)N1CCC[C@H]1c1ncc(-c2ccc3c(c2)OC(c2cccc(OC)c2)C2=C3COc3cc(-c4cnc([C@@H]5CCCN5C(=O)[C@@H](NC(=O)OC)C(C)C)[nH]4)ccc32)[nH]1)C(C)C (single isomer, unassigned) [Compound 12]	0.0251 nM	2.44 nM		IC50 (HCV replicon 3A): 1.82 nM
COC(=O)N[C@H](C(=O)N1CCC[C@H]1c1ncc(-c2ccc3c(c2)OC(C)C2=C3COc3cc(-c4cnc([C@@H]5CCCN5C(=O)[C@@H](NC(=O)OC)C(C)C)[nH]4)ccc32)[nH]1)C(C)C (single isomer, unassigned) [Compound 13]	0.0344 nM	23.8 nM		IC50 (HCV replicon 2B): 12 nM; IC50 (HCV replicon 3A; Hepatitis C virus, 72 h): 1 nM
COC(=O)N[C@H](C(=O)N1CCC[C@H]1c1ncc(-c2ccc3c(c2)OC(C)C2=C3COc3cc(-c4cnc([C@@H]5CCCN5C(=O)[C@@H](NC(=O)OC)C(C)C)[nH]4)ccc32)[nH]1)C(C)C (single isomer, unassigned) [Compound 14]	0.0122 nM	31.8 nM		IC50 (HCV replicon 2B): 24.5 nM
COC(=O)N[C@H](C(=O)N1CCC[C@H]1c1ncc(-c2ccc3c(c2)OC(C)C2=C3COc3cc(-c4cnc([C@@H]5CCCN5C(=O)[C@@H](NC(=O)OC)C(C)C)[nH]4)ccc32)[nH]1)C(C)C (single isomer, unassigned) [Compound 15]	0.0229 nM	127 nM		IC50 (HCV replicon 2B): 15.3 nM
COC(=O)N[C@H](C(=O)N1CCC[C@H]1c1ncc(-c2ccc3c(c2)OC(C2CC2)C2=C3COc3cc(-c4cnc([C@@H]5CCCN5C(=O)[C@@H](NC(=O)OC)C(C)C)[nH]4)ccc32)[nH]1)C(C)C (single isomer, unassigned) [Compound 16]		6.31 nM		IC50 (HCV replicon genotype 1A; Hepatitis C virus, 72 h): 0.0118 nM; IC50 (HCV replicon 2B; Hepatitis C virus, 72 h): 0.621 nM; IC50 (HCV replicon 3A; Hepatitis C virus, 72 h): 3.74 nM
COC(=O)N[C@H](C(=O)N1CCC[C@H]1c1ncc(-c2ccc3c(c2)OC(C2CC2)C2=C3COc3cc(-c4cnc([C@@H]5CCCN5C(=O)[C@@H](NC(=O)OC)C(C)C)[nH]4)ccc32)[nH]1)C(C)C (single isomer, unassigned) [Compound 17]	0.0115 nM	57.9 nM		
COC(=O)N[C@H](C(=O)N1CCC[C@H]1c1ncc(-c2ccc3c(c2)OC(C2CC2)C2=C3COc3cc(-c4cnc([C@@H]5CCCN5C(=O)[C@@H](NC(=O)OC)C(C)C)[nH]4)ccc32)[nH]1)C(C)C (single isomer, unassigned) [Compound 18]	0.0081 nM	14.3 nM		
COC(=O)N[C@H](C(=O)N1C[C@H](F)C[C@H]1c1ncc(-c2ccc3c(c2)OC(C2CC2)C2=C3COc3cc(-c4cnc([C@@H]5C[C@@H](F)CN5C(=O)[C@@H](NC(=O)OC)C(C)C)[nH]4)ccc32)[nH]1)C(C)C (single isomer, unassigned) [Compound 19]	0.0192 nM		2.31 nM	
COC(=O)N[C@H](C(=O)N1C[C@H](F)C[C@H]1c1ncc(-c2ccc3c(c2)OC(C2CC2)C2=C3COc3cc(-c4cnc([C@@H]5C[C@@H](F)CN5C(=O)[C@@H](NC(=O)OC)C(C)C)[nH]4)ccc32)[nH]1)C(C)C (single isomer, unassigned) [Compound 20]	0.0866 nM	1.97 nM		
COC(=O)N[C@H](C(=O)N1C[C@H](F)C[C@H]1c1ncc(-c2ccc3c(c2)OC(C2CC2)C2=C3COc3cc(-c4cnc([C@@H]5C[C@@H](F)CN5C(=O)[C@@H](NC(=O)OC)C(C)C)[nH]4)ccc32)[nH]1)C(C)C (single isomer, unassigned) [Compound 21]	0.0156 nM	2.17 nM		
COC(=O)N[C@H](C(=O)N1C[C@H](F)C[C@H]1c1ncc(-c2ccc3c(c2)OCc2c-3c(=O)oc3cc(-c4cnc([C@@H]5C[C@@H](F)CN5C(=O)[C@@H](NC(=O)OC)C(C)C)[nH]4)ccc23)[nH]1)C(C)C [Compound 5]			0.337 nM	IC50 (HCV replicon genotype 1A; Hepatitis C virus, 72 h): 0.0153 nM; IC50 (HCV replicon 1B; Hepatitis C virus, 72 h): 0.0044 nM; IC50 (HCV replicon 2B; Hepatitis C virus, 72 h): 100 nM; IC50 (HCV replicon 3A; Hepatitis C virus, 72 h): 1 nM
CC(C)(C)OC(=O)N1C[C@H](F)C[C@H]1c1ncc(-c2ccc3c(c2)OCc2c-3c(=O)oc3cc(-c4cnc([C@@H]5C[C@@H](F)CN5C(=O)OC(C)(C)C)[nH]4)ccc23)[nH]1 [Compound 6]			3080 nM	IC50 (HCV replicon genotype 1A; Hepatitis C virus, 72 h): 975 nM
COC(=O)N[C@H](C(=O)N1CCC[C@H]1c1ncc(-c2ccc3c(c2)OC(c2ccccc2)C2=C3COc3cc(-c4cnc([C@@H]5CCCN5C(=O)[C@@H](NC(=O)OC)C(C)C)[nH]4)ccc32)[nH]1)C(C)C (some centres unmarked) [Compound 7]			4.29 nM	IC50 (HCV replicon genotype 1A; Hepatitis C virus, 72 h): 0.0076 nM; IC50 (HCV replicon 1B; Hepatitis C virus, 72 h): 0.002 nM; IC50 (HCV replicon 2B; Hepatitis C virus, 72 h): 1 nM; IC50 (HCV replicon 3A; Hepatitis C virus, 72 h): 0.062 nM
COC(=O)N[C@H](C(=O)N1CCC[C@H]1c1ncc(-c2ccc3c(c2)OCC2=C3COc3cc(-c4cnc([C@@H]5C[C@H]6C[C@H]6N5C(=O)[C@@H](NC(=O)OC)C(C)C)[nH]4)ccc32)[nH]1)C(C)C [Compound 22]			2.01 nM	IC50 (HCV replicon genotype 1A; Hepatitis C virus, 72 h): 0.0023 nM; IC50 (HCV replicon 2B; Hepatitis C virus, 72 h): 16 nM; IC50 (HCV replicon 3A; Hepatitis C virus, 72 h): 2.02 nM
